pIC50: −log10 of the molar value.
How the values were obtained:
BCR-NTRK3 BaF3 cells = target: T1, BCR-NTRK3 BaF3 cells (Homo sapiens, UniProt Q16288); assay: BaF3 BCR-NTRK3 cell proliferation assay (ATPlite); format: cell-based; settings: read-out: Inhibition of Cell Proliferation IC50, BCR/BaF3 TrkC
T1 construct: fused on or other part: P11274 (Breakpoint cluster region protein)
In short: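 ATP-based luminescence (ATPlite), read after 10 min at room temperature, served as a proxy for cell number, and IC50 was fitted against compound concentration. Before that, cells were treated for 3 days with an 8-point 1:3 dilution series starting at 10 μM. BaF3 cells were plated at 10,000/well without IL-3, and MV-4-11 cells at 25,000/well.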

TrkA kinase = TrkA kinase (Homo sapiens, UniProt P04629); assay: TrkA kinase biochemical activity assay (AlphaScreen); settings: 100 μM ATP; read-out: Biochemical Inhibition IC50 TrkA
In short: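 Recombinant TrkA with 30 nM biotin-(E4Y)10 and 100 μM ATP in 25 mM Hepes pH 7.5, 10 mM MnCl2, 5% DMSO, 40 min at room temperature. Phosphorylation read by AlphaScreen (streptavidin donor, PY20 acceptor beads); IC50 from signal vs compound concentration. TrkC run similarly.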

TrkA kinase, sequence (P04629 33-796): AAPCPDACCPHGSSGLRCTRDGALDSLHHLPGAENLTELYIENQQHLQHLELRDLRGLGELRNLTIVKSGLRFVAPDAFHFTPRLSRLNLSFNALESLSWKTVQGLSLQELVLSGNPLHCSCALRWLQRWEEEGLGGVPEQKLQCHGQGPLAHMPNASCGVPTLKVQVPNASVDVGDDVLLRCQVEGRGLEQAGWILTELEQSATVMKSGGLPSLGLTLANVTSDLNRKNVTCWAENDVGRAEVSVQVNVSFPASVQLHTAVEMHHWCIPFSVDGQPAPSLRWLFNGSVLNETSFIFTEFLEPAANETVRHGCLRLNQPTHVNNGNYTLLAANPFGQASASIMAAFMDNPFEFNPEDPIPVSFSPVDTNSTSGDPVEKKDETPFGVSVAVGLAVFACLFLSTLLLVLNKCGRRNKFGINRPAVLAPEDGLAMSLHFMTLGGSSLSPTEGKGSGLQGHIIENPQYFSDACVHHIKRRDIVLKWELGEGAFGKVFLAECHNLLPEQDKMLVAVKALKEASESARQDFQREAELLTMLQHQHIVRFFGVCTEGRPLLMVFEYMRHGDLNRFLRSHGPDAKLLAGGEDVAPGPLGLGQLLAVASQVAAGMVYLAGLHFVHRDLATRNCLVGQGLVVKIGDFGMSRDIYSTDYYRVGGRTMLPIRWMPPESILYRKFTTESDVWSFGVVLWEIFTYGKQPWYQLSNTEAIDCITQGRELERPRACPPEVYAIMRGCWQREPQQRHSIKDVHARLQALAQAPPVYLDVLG
T1 sequence (Q16288 whole entry, the tested form may be a part): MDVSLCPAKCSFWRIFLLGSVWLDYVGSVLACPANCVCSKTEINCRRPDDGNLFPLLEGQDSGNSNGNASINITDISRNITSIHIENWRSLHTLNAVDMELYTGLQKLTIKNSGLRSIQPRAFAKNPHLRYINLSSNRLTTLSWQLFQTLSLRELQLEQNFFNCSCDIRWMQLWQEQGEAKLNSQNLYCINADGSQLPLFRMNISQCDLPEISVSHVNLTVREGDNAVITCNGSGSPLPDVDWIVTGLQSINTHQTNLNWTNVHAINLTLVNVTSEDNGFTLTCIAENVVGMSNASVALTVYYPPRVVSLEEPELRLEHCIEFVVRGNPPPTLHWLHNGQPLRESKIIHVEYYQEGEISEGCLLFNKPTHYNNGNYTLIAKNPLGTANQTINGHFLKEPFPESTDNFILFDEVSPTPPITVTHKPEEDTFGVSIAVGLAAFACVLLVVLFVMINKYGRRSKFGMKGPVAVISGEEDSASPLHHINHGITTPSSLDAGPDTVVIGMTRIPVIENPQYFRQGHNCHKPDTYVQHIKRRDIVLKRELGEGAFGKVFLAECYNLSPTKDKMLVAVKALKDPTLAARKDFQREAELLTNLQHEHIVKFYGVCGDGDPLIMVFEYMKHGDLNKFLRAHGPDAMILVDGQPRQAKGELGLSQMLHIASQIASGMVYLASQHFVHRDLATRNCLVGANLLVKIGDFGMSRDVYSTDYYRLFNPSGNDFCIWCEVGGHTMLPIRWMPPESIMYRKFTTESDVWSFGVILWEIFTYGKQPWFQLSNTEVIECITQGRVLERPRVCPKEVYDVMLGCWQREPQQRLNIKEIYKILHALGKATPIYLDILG

| Compound | pIC50 (BCR-NTRK3 BaF3 cells) | pIC50 (TrkA kinase) |
| --- | --- | --- |
| Clc1cnc2[nH]cc(Cc3cnc(NC4CCCCC4)nc3)c2c1 [Compound P-3001, [5-(5-chloro-1H-pyrrolo[2,3-b]pyridin-3-ylmethyl)-pyrimidin-2-yl]-cyclohexyl-amine] | < 5.00 |  |
| Cc1cnc2[nH]cc(Cc3cnc(Nc4ccc(C(F)(F)F)nc4)nc3)c2c1 [Compound P-3018, [5-(5-Methyl-1H-pyrrolo[2,3-b]pyridin-3-ylmethyl)-pyrimidin-2-yl]-(6-trifluoromethyl-pyridin-3-yl)-amine] | > 7.00 | > 6.00 |
| Clc1cnc2[nH]cc(Cc3cnc(NC4CCCCCC4)nc3)c2c1 [Compound P-3006, [5-(5-Chloro-1H-pyrrolo[2,3-b]pyridin-3-ylmethyl)-pyrimidin-2-yl]-cycloheptyl-amine] | < 5.00 |  |
| CCn1cc(Nc2ccc(Cc3c[nH]c4ncnc(C5CC5)c34)c(F)n2)cn1 [Compound P-4036, [5-(4-Cyclopropyl-7H-pyrrolo[2,3-d]pyrimidin-5-ylmethyl)-6-fluoro-pyridin-2-yl]-(1-ethyl-1H-pyrazol-4-yl)-amine] | > 7.00 | > 7.00 |
| CCOc1ccc(Nc2ccc(Cc3c[nH]c4ncnc(C5CC5)c34)c(F)n2)cn1 [Compound P-4026, [5-(4-Cyclopropyl-7H-pyrrolo[2,3-d]pyrimidin-5-ylmethyl)-6-fluoro-pyridin-2-yl]-(6-ethoxy-pyridin-3-yl)-amine] | > 8.00 | > 8.00 |
| Fc1cccc(Nc2ncc(Cc3c[nH]c4ncc(Cl)cc34)cn2)c1 [Compound P-3017, [5-(5-Chloro-1H-pyrrolo[2,3-b]pyridin-3-ylmethyl)-pyrimidin-2-yl]-(3-fluoro-phenyl)-amine] | < 5.00 | < 6.00 |
| COc1ccc(Nc2ncc(Cc3c[nH]c4ncc(C)cc34)cn2)cc1F [Compound P-3023, (3-Fluoro-4-methoxy-phenyl)-[5-(5-methyl-1H-pyrrolo[2,3-b]pyridin-3-ylmethyl)-pyrimidin-2-yl]-amine] | > 6.00 |  |
| Clc1cnc2[nH]cc(Cc3cnc(NC4CC4)nc3)c2c1 [Compound P-3005, [5-(5-Chloro-1H-pyrrolo[2,3-b]pyridin-3-ylmethyl)-pyrimidin-2-yl]-cyclopropyl-amine] | < 5.00 |  |
| COc1cc(Nc2ncc(Cc3c[nH]c4ncc(C)cc34)cn2)ccc1F [Compound P-3022, (4-Fluoro-3-methoxy-phenyl)-[5-(5-methyl-1H-pyrrolo[2,3-b]pyridin-3-ylmethyl)-pyrimidin-2-yl]-amine] | > 6.00 | > 6.00 |
| COc1ccccc1Nc1ncc(Cc2c[nH]c3ncc(Cl)cc23)cn1 [Compound P-3016, [5-(5-Chloro-1H-pyrrolo[2,3-b]pyridin-3-ylmethyl)-pyrimidin-2-yl]-(2-methoxy-phenyl)-amine] | < 5.00 | < 6.00 |
| FC1(F)CCC(Nc2ncc(Cc3c[nH]c4ncc(Cl)cc34)cn2)CC1 [Compound P-3004] | > 5.00 |  |

Continued, values first:

| pIC50 (BCR-NTRK3 BaF3 cells) | pIC50 (TrkA kinase) | Compound |
| --- | --- | --- |
| > 8.00 | > 7.00 | Cc1ccc(Nc2ccc(C(=O)c3c[nH]c4ncnc(C5CC5)c34)c(F)n2)cn1 [Compound P-4031, (4-Cyclopropyl-7H-pyrrolo[2,3-d]pyrimidin-5-yl)-[2-fluoro-6-(6-methyl-pyridin-3-ylamino)-pyridin-3-yl]-methanone] |
|  | > 7.00 | Cc1cnc2[nH]cc(Cc3ccc(Nc4ccc(C5CC5)nc4)nc3F)c2c1 [Compound P-3050, (6-Cyclopropyl-pyridin-3-yl)-[6-fluoro-5-(5-methyl-1H-pyrrolo[2,3-b]pyridin-3-ylmethyl)-pyridin-2-yl]-amine] |
| > 8.00 | > 8.00 | CCc1ccc(Nc2ccc(C(=O)c3c[nH]c4ncnc(C5CC5)c34)c(F)n2)cn1 [Compound P-4029, (4-Cyclopropyl-7H-pyrrolo[2,3-d]pyrimidin-5-yl)-[6-(6-ethyl-pyridin-3-ylamino)-2-fluoro-pyridin-3-yl]-methanone] |
|  | > 7.00 | CCn1cc(Nc2ccc(C(=O)c3c[nH]c4ncnc(C5CC5)c34)c(F)n2)cn1 [Compound P-4037, (4-Cyclopropyl-7H-pyrrolo[2,3-d]pyrimidin-5-yl)-[6-(1-ethyl-1H-pyrazol-4-ylamino)-2-fluoro-pyridin-3-yl]-methanone] |
| > 7.00 | > 7.00 | CCOc1ccc(Nc2ccc(C(=O)c3c[nH]c4ncnc(C)c34)c(F)n2)cn1 [Compound P-4032, [6-(6-Ethoxy-pyridin-3-ylamino)-2-fluoro-pyridin-3-yl]-(4-methyl-7H-pyrrolo[2,3-d]pyrimidin-5-yl)-methanone] |
| > 8.00 | > 8.00 | CCOc1ccc(Nc2ccc(C(=O)c3c[nH]c4ncnc(C5CC5)c34)c(F)n2)cn1 [Compound P-4027, (4-Cyclopropyl-7H-pyrrolo[2,3-d]pyrimidin-5-yl)-[6-(6-ethoxy-pyridin-3-ylamino)-2-fluoro-pyridin-3-yl]-methanone] |
|  | > 8.00 | CCc1ccc(Nc2ccc(Cc3c[nH]c4ncc(C)cc34)c(F)n2)cn1 [Compound P-3048, (6-Ethyl-pyridin-3-yl)-[6-fluoro-5-(5-methyl-1H-pyrrolo[2,3-b]pyridin-3-ylmethyl)-pyridin-2-yl]-amine] |
| > 8.00 | > 7.00 | Fc1nc(Nc2ccc(C3CC3)nc2)ccc1Cc1c[nH]c2ncccc12 [Compound P-3053, (6-Cyclopropyl-pyridin-3-yl)-[6-fluoro-5-(1H-pyrrolo[2,3-b]pyridin-3-ylmethyl)-pyridin-2-yl]-amine] |
| > 8.00 | > 8.00 | CCc1ccc(Nc2ccc(Cc3c[nH]c4ncnc(C5CC5)c34)c(F)n2)cn1 [Compound P-4028, [5-(4-Cyclopropyl-7H-pyrrolo[2,3-d]pyrimidin-5-ylmethyl)-6-fluoro-pyridin-2-yl]-(6-ethyl-pyridin-3-yl)-amine] |
|  | > 8.00 | Cc1cnc2[nH]cc(C(=O)c3ccc(Nc4ccc(C5CC5)nc4)nc3F)c2c1 [Compound P-3051, [6-(6-Cyclopropyl-pyridin-3-ylamino)-2-fluoro-pyridin-3-yl]-(5-methyl-1H-pyrrolo[2,3-b]pyridin-3-yl)-methanone] |
|  | > 8.00 | CCc1ccc(Nc2ccc(C(=O)c3c[nH]c4ncc(C)cc34)c(F)n2)cn1 [Compound P-3049, [6-(6-Ethyl-pyridin-3-ylamino)-2-fluoro-pyridin-3-yl]-(5-methyl-1H-pyrrolo[2,3-b]pyridin-3-yl)-methanone] |
| > 8.00 | > 8.00 | O=C(c1ccc(Nc2ccc(C3CC3)nc2)nc1F)c1c[nH]c2ncccc12 [Compound P-3052, [6-(6-Cyclopropyl-pyridin-3-ylamino)-2-fluoro-pyridin-3-yl]-(1H-pyrrolo[2,3-b]pyridin-3-yl)-methanone] |
| > 7.00 | > 7.00 | Cc1ccc(Nc2ccc(Cc3c[nH]c4ncnc(C5CC5)c34)c(F)n2)cn1 [Compound P-4030, [5-(4-Cyclopropyl-7H-pyrrolo[2,3-d]pyrimidin-5-ylmethyl)-6-fluoro-pyridin-2-yl]-(6-methyl-pyridin-3-yl)-amine] |
| > 7.00 | > 7.00 | Cc1cncc(Nc2ccc(C(=O)c3c[nH]c4ncnc(C5CC5)c34)c(F)n2)c1 [Compound P-4039, (4-Cyclopropyl-7H-pyrrolo[2,3-d]pyrimidin-5-yl)-[2-fluoro-6-(5-methyl-pyridin-3-ylamino)-pyridin-3-yl]-methanone] |
| > 7.00 | > 7.00 | Cc1cncc(Nc2ccc(Cc3c[nH]c4ncnc(C5CC5)c34)c(F)n2)c1 [Compound P-4038, [5-(4-Cyclopropyl-7H-pyrrolo[2,3-d]pyrimidin-5-ylmethyl)-6-fluoro-pyridin-2-yl]-(5-methyl-pyridin-3-yl)-amine] |
